Measurements reported in PMC6274227, “Interactions of Bovine Serum Albumin with Anti-Cancer Compounds Using a ProteOn XPR36 Array Biosensor and Molecular Docking” (Molecules, 2016).

How the values were obtained:
[1] = target: T1, bovine serum albumin (BSA) (Bos taurus, UniProt P02769); test: ProteOn XPR36 SPR array biosensor binding to immobilized BSA; settings: for binding to the immobilized BSA (sensorgram): SPR, PBS-T buffer pH 7.4, 25 °C; for koff / kon: bovine, pH 7.4
Protocol: The GLH sensor chip, consisting of glass prisms coated with gold and an alginate-based layer, was an ideal choice for examining protein-small molecule interactions. The chip was initialized with 50% glycerol for several minutes prior to use.
Following initialization, the GLH sensor chip was washed with 0.5% SDS, 50 mM NaOH and 100 mM HCl, respectively, for 1 min each, at a flow rate of 100 µL/min. PBS-T buffer (10 mM sodium phosphate, 150 mM NaCl, and 0.005% Tween 20, pH 7.4) was then injected in three pulses for baseline stabilization.
One of the six channels was activated with a mixture of EDC (40 mM) and sulfo-NHS (10 mM) in the horizontal direction for 3 min, at a flow rate of 30 µL/min. BSA (2 mg/mL) was diluted to 300 nM in 10 mM sodium acetate (pH 4.0) and immobilized on the channel for 5 min, at a flow rate of 30 µL/min. Next, the channel was blocked by injection of 1 M ethanolamine-HCl for 5 min. […] Baseline equilibration was performed by multiple washes with running buffer (PBS-T) across the chip surface for 1 h.
Each compound was tested at six concentrations using a two-fold dilution series. Gradient concentrations of each compound were simultaneously injected over the BSA-immobilized surface at a flow rate of 30 µL/min in the vertical direction, where the association and dissociation times were 80 s and 60 s, respectively. All interaction analyses were performed at 25 °C.
All sensorgrams for protein binding were collected, processed, and analyzed using the ProteOn Manager software. We utilized two types of reference sources, the standard blank buffer reference, and interspot reference, which was the average response before and after each interaction spot to correct for nonspecific binding. The target protein was washed off in the dissociation phase, which caused baseline drift, although real-time injection of a blank reference can completely correct this baseline drift by subtracting artifacts in real time. The dual references were both subtracted from the interaction spot data to correct for any bulk shifts due to baseline drift and nonspecific binding. Finally, the data for each compound collected over the same target protein were globally fit to a Langmuir 1:1 binding model with a global ka and kd, where ka is the association rate constant and kd is the dissociation rate constant for the protein-small molecule binding. The ratio of (kd/ka) indicated the value for the equilibrium dissociation constant (KD).

[2] = target: T1, bovine serum albumin (BSA); set-up: I (residues 1–183), II (184–376), III (377–583); purchased Sigma-Aldrich; method as in doi:10.1016/j.molstruc.2008.01.013; settings: under physiological conditions; cited from earlier work

T1 sequence (P02769 25-607): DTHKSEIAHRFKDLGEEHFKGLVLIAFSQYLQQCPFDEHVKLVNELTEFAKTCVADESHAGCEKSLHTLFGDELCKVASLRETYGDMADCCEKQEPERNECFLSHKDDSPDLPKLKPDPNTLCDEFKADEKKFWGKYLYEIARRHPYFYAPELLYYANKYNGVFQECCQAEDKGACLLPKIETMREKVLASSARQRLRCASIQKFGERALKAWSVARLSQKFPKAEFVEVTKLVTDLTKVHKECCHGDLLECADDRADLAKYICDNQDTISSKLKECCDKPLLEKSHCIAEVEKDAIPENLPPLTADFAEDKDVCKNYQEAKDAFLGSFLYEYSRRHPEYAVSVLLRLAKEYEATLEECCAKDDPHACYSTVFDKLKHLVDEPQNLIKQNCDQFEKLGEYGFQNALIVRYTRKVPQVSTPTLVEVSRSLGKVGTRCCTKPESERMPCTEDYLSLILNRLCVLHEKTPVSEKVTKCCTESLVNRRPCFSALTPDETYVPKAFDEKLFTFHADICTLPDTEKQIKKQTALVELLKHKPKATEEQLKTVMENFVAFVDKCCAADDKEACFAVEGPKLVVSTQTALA

| Compound | Kd [1] [µM] | binding to the immobilized BSA (sensorgram) [1] | koff [1] [s⁻¹] | kon [1] [M⁻¹ s⁻¹] | difference in affinity for BSA between weakest and strongest binding compound ([1]; doxorubicin (weakest) versus salvianolic acid B (strongest)) | binding to BSA via spectroscopic investigation [2] |
| --- | --- | --- | --- | --- | --- | --- |
| C[C@@H]1O[C@@H](O[C@@H]2[C@@H](O)[C@H](OCCc3ccc(O)c(O)c3)O[C@H](CO)[C@H]2OC(=O)/C=C/c2ccc(O)c(O)c2)[C@H](O)[C@H](O)[C@H]1O [acteoside, Acteoside] | 740 ± 360 | able to reversibly bind | 0.09 ± 0.02 | 149 | – | – |
| O=C(O)c1cc(O)c(O)c(O)c1 [gallic acid, Gallic acid] | 510 ± 250 | – | – | – | – | – |
| COc1cccc2c1C(=O)c1c(O)c3c(c(O)c1C2=O)C[C@@](O)(C(=O)CO)C[C@@H]3O[C@H]1C[C@H](N)[C@H](O)[C@H](C)O1 [doxorubicin, Doxorubicin, reference compound] | – | able to reversibly bind | 0.73 ± 0.03 | 2 | greater than 1000 fold | – |
| CC[C@]1(O)C[C@H]2CN(CCc3c([nH]c4ccccc34)[C@@](C(=O)OC)(c3cc4c(cc3OC)N(C=O)[C@H]3[C@@](O)(C(=O)OC)[C@H](OC(C)=O)[C@]5(CC)C=CCN6CC[C@]43[C@@H]65)C2)C1 [vincristine, Vincristine, reference compound] | 2560 ± 430 | able to reversibly bind | 1.96 ± 0.2 | 784 | – | – |
| O=C(/C=C/c1ccc(O)c2c1[C@H](C(=O)O[C@H](Cc1ccc(O)c(O)c1)C(=O)O)[C@@H](c1ccc(O)c(O)c1)O2)O[C@H](Cc1ccc(O)c(O)c1)C(=O)O [salvianolic acid B, Salvianolic acid B] | 230 ± 70 | able to reversibly bind | 0.59 ± 0.24 | 2500 | – | – |
| Echinacoside | – | able to reversibly bind | – | – | – | – |
| OC[C@H]1O[C@@H](OCCc2ccc(O)cc2)[C@H](O)[C@@H](O)[C@@H]1O [salidroside, Salidroside] | – | no such binding | – | – | – | could bind to BSA |
